The nature of data set [1]: Cytotoxicity assay in MT-4 cells. The class given is cell-based. The settings on record: human, Cell-Titer Glo. The procedure: The MT-4 cell line was obtained from the NIH AIDS Research and Reference Reagent Program (Germantown, Md.) and cultured in RPMI-1640 medium (Irvine Scientific, Santa Ana, Calif., Cat #9160) supplemented with 10% FBS, 100 units/mL penicillin, 100 units/mL streptomycin, and 2 mM L-Glutamine. The MT-4 cells were passaged twice per week to maintain cell densities below 0.6×10^6 cells/mL. Complete RPMI-1640 media containing 100× concentrations of 3-fold serially diluted compound, ranging from 26 nM to 530 μM, were stamped in quadruplicate into black 384-well plates. After compound addition, 2×10^3 MT-4 cells were added to each well using a MicroFlo liquid dispenser (BioTek, Winooski, Vt.) and the cells were cultured for 5 days at 37° C. in a 5% CO2 incubator. Following the incubation the cells were allowed to equilibrate to 25° C. and cell viability was determined by adding 25 μL of Cell-Titer Glo viability reagent. The mixture was incubated for 10 minutes at 25° C., and the luminescence signal was quantified on a Victor Luminescence plate reader. The CC50 value is defined as the concentration of compound that reduces cell viability by 50% as determined by the Cell-Titer Glo signal. The data were analyzed using Pipeline Pilot Plate Data Analytics Collection software (Version 7.0, Accelrys, San Diego, Calif.). CC50 values were calculated from a non-linear regression analysis using a 4-parameter sigmoidal dose-response equation: Y=Bottom+(Top−Bottom)/(1+10^[(Log CC50−X)*HillSlope]) where the Top and Bottom were fixed at 100% and 0% cell viability, respectively. CC50 values were calculated as the average±standard deviation of 3 independent experiments.

A further data set has as its system RSV strain A2. As to the kind of experiment: Anti-RSV activity, infectious cytopathic cell protection assay in HEp-2 cells. The class given is cell-based, Respiratory Syncytial Virus (RSV). The settings on record: human respiratory syncytial virus. On the procedure:
Antiviral activity against RSV is determined using an infectious cytopathic cell protection assay in HEp-2 cells. In this assay, compounds inhibiting viral infection and/or replication produce a cytoprotective effect against the virus-induced cell killing that can be quantified using a cell viability reagent. The techniques used here are novel adaptations of methods described in published literature (Chapman et al., Antimicrob Agents Chemother. 2007, 51(9):3346-53.)
HEp-2 cells are obtained from ATCC (Manassas, VI) and maintained in MEM media supplemented with 10% fetal bovine serum and penicillin/streptomycin. Cells are passaged twice a week and kept at subconfluent stage. Commercial stock of RSV strain A2 (Advanced Biotechnologies, Columbia, Md.) is titered before compound testing to determine the appropriate dilution of the virus stock that generates desirable cytopathic effect in HEp-2 cells.
For antiviral tests, HEp-2 cells are grown in large cell culture flasks to near confluency but not fully so. The compounds to be tested are prediluted in DMSO in 384-well compound dilution plates, either in an 8 or 40 sample per plate standardized dose response format. 3-fold serial dilution increments of each test compound are prepared in the plates and test samples are transferred via acoustic transfer apparatus (Echo, Labcyte) at 100 nl per well into cell culture assay 384-well plates. Each compound dilution is transferred in single or quadruplicate samples into dry assay plates, which are stored until assay is ready to go. The positive and negative controls are laid out in opposite on ends of the plate in vertical blocks (1 column).
Subsequently, an infectious mixture is prepared using an appropriate dilution of virus stock previously determined by titration with cells at a density of 50,000/ml and 20 uL/well is added to test plates w/compounds via automation (uFlow, Biotek). Each plate includes negative and positive controls (16 replicates each) to create 0% and 100% virus inhibition standards, respectively. Following the infection with RSV, testing plates are incubated for 4 days in a 37° C. cell culture incubator. After the incubation, a cell viability reagent, Cell TiterGlo (Promega, Madison, Wis.) is added to the assay plates, which are incubated briefly, and a luminescent readout is measured (Envision, Perkin Elmer) in all the assay plates. The RSV-induced cytopathic effect, percentage inhibition, is determined from the levels of remaining cell viability. These numbers are calculated for each tested concentration relative to the 0% and 100% inhibition controls, and the EC50 value for each compound is determined by non-linear regression as a concentration inhibiting the RSV-induced cytopathic effect by 50%. Various potent anti-RSV tool compounds are used as positive controls for antiviral activity.

Data set [2] is described as follows: Cytotoxicity assay in HEp-2 cells. The class given is cell-based. The settings on record: human, uninfected HEp-2 cells, CellTiter Glo. On the procedure:
Cytotoxicity of tested compounds is determined in uninfected HEp-2 cells in parallel with the antiviral activity using the cell viability reagent in a similar fashion as described before for other cell types (Cihlar et al., Antimicrob Agents Chemother. 2008, 52(2):655-65.). The same protocol as for the determination of antiviral activity is used for the measurement of compound cytotoxicity except that the cells are not infected with RSV. Instead, an uninfected cell mixture at the same density is added at 20 ul/well to plates containing prediluted compounds, also at 100 nl/sample. Assay plates are then incubated for 4 days followed by a cell viability test using the same CellTiter Glo reagent addition and measurement of luminescent readouts. Untreated cell and cells treated at 2 uM puromycin (Sigma, St. Louis, Mo.) serve as 100% and 0% cell viability control, respectively. The percent of cell viability is calculated for each tested compound concentration relative to the 0% and 100% controls and the CC50 value is determined by non-linear regression as a compound concentration reducing the cell viability by 50%.
For orientation: ATP-based viability assays read luminescence as a measure of living cells.

Where [3] appears, read: 96 h, HEp-2 cells infected with RSV A2, 4 days, Cell TiterGlo, read-out: EC50.
[4] abbreviates: HEp-2 anti-RSV activity, read-out: EC50 (HEp-2 anti-RSV activity).

Broadly, the CC50 is the concentration that lowers cell viability or growth by half. High values mean better tolerance by the cells, low ones harm at low concentration. Usually EC50 stands for the midpoint of the concentration-response curve.

Each structure is given as a SMILES string. Like-named read-outs stand apart in the source and are kept apart here.

In turn, `Nc1ncnn2c([C@@H]3O[C@H](CO)[C@@H](O)[C@H]3F)ccc12` [(2R,3R,4R,5S)-5-(4-aminopyrrolo[1,2-f][1,2,4]triazin-7-yl)-4-fluoro-2-(hydroxymethyl)tetrahydrofuran-3-ol, reference compound] came in with a 50% cytotoxic concentration (CC50) at 5 days in data set [1] of 30 µM. The EC50 in the data set on RSV strain A2 (setting [3]) was more than 100 µM.
In turn, `Nc1ncnn2c([C@@H]3O[C@H](CO)[C@@H](O)[C@H]3O)ccc12` [(2S,3R,4S,5R)-2-(4-aminopyrrolo[1,2-t][1,2,4]triazin-7-yl)-5-(hydroxymethyl)tetrahydrofuran-3,4-diol, reference compound] registered a CC50 at 5 days in data set [1] of 0.007 µM.
With `C#C[C@]1(CO)O[C@@H](c2ccc3c(N)ncnn23)[C@H](F)[C@@H]1O` [Example 2, (2R,3R,4R,5S)-5-(4-aminopyrrolo[1,2-f][1,2,4]triazin-7-yl)-2-ethynyl-4-fluoro-2-(hydroxymethyl)tetrahydrofuran-3-ol], the CC50 at 5 days in data set [1] is more than 106 µM. In addition, in data set [2], the CC50 at 4 days was more than 100 µM. The 50% effective concentration (EC50) is 9.6 µM in the data set with RSV strain A2 (setting [3]) and less than 100 µM in the data set with RSV strain A2 (setting [4]).
On the same counts, the results for `N#C[C@]1(CO)O[C@@H](c2ccc3c(N)ncnn23)[C@H](F)[C@@H]1O` [Example 3, (2R,3R,4R,5S)-5-(4-aminopyrrolo[1,24][1,2,4]triazin-7-yl)-4-fluoro-3-hydroxy-2-(hydroxymethyl)tetrahydrofuran-2-carbonitrile] are more than 106 µM, more than 100 µM, 2 µM and less than 100 µM.
In the case of `C[C@]1(CO)O[C@@H](c2ccc3c(N)ncnn23)[C@H](O)[C@@H]1O` [Example 4, (2R,3S,4R,5S)-5-(4-aminopyrrolo[1,2-f][1,2,4]triazin-7-yl)-2-(hydroxymethyl)-2-methyltetrahydrofuran-3,4-diol], the CC50 at 5 days in data set [1] was more than 53 µM. Besides, the CC50 at 4 days in data set [2] was more than 50 µM. The EC50 in the data set with RSV strain A2 (setting [3]) amounted to 30 µM.
On the same counts, the results for `[N-]=[N+]=N[C@]1(CO)O[C@@H](c2ccc3c(N)ncnn23)[C@H](O)[C@@H]1O` [Example 5, (2R,3S,4R,5S)-5-(4-aminopyrrolo[1,2-f][1,2,4]triazin-7-yl)-2-azido-2-(hydroxymethyl)tetrahydrofuran-3,4-diol] are more than 53 µM, more than 50 µM and 2.1 µM.
For `CC(C)(C)C(=O)SCCOP(=O)(OCCSC(=O)C(C)(C)C)OC[C@@]1(C#N)O[C@@H](c2ccc3c(N)ncnn23)[C@H](F)[C@@H]1O` [Example 11, S,S′-2,2′-((((2R,3R,4R,5S)-5-(4-aminopyrrolo[1,2-f][1,2,4]triazin-7-yl)-2-cyano-4-fluoro-3-hydroxytetrahydrofuran-2-yl)methoxy)phosphoryl)bis(oxy)bis(ethane-2,1-diyl)bis(2,2-dimethylpropanethioate)], in data set [1], the CC50 at 5 days was determined as 19.7 µM. Also, it took 42 µM to reach half-maximal cytotoxicity in data set [2] (CC50 at 4 days). The compound further registered an EC50 in the data set with RSV strain A2 (HEp-2, 96 h) of 1.2 µM.
On the same counts, the results for `CCC(CC)COC(=O)[C@H](C)NP(=O)(OC[C@@]1(C#N)O[C@@H](c2ccc3c(N)ncnn23)C(F)C1O)Oc1ccccc1` (stereo partly drawn) [Example 12, (2S)-2-ethylbutyl 2-((((2R,3R,4R,5S)-5-(4-aminopyrrolo[1,2-f][1,2,4]triazin-7-yl)-2-cyano-4-fluoro-3-hydroxytetrahydrofuran-2-yl)methoxy)(phenoxy)phosphorylamino)propanoate] are 27 µM, more than 50 µM and 3 µM.
In data set [1], `C=C[C@]1(CO)O[C@@H](c2ccc3c(N)ncnn23)[C@H](F)[C@@H]1O` [Example 13, (2R,3R,4R,5S)-5-(4-aminopyrrolo[1,2-f][1,2,4]triazin-7-yl)-4-fluoro-2-(hydroxymethyl)-2-vinyltetrahydrofuran-3-ol] yielded a CC50 at 5 days of more than 106 µM. In data set [2], this compound registered a CC50 at 4 days of more than 100 µM. Besides, the EC50 in the data set with RSV strain A2 (setting [3]) is 10.5 µM; in the data set on RSV strain A2 (setting [4]) it was less than 100 µM.
On the same counts, the results for `CC[C@]1(CO)O[C@@H](c2ccc3c(N)ncnn23)[C@H](F)[C@@H]1O` [Example 14, (2R,3R,4R,5S)-5-(4-aminopyrrolo[1,24][1,2,4]triazin-7-yl)-2-ethyl-4-fluoro-2-(hydroxymethyl)tetrahydrofuran-3-ol] are more than 106 µM, more than 100 µM, 40 µM and less than 100 µM.
On to `C=C[C@]1(COP(=O)(OCCSC(=O)C(C)(C)C)OCCSC(=O)C(C)(C)C)O[C@@H](c2ccc3c(N)ncnn23)[C@H](F)[C@@H]1O` [Example 15, S,S′-2,2′-((((2R,3R,4R,5S)-5-(4-aminopyrrolo[1,2-f][1,2,4]triazin-7-yl)-4-fluoro-3-hydroxy-2-vinyltetrahydrofuran-2-yl)methoxy)phosphoryl)bis(oxy)bis(ethane-2,1-diyl)bis(2,2-dimethylpropanethioate)], for which the CC50 at 5 days in data set [1] amounted to 7.9 µM. This compound showed a CC50 at 4 days in data set [2] of 35 µM. In the data set with RSV strain A2 (HEp-2, 96 h), this compound came in with an EC50 of 1.6 µM.
As to `CCC(CC)COC(=O)[C@H](C)NP(=O)(OC[C@@]1(N=[N+]=[N-])O[C@@H](c2ccc3c(N)ncnn23)[C@H](O)[C@@H]1O)Oc1ccccc1` (stereo partly drawn) [Example 16, (2S)-2-ethylbutyl 2-(((((2R,3S,4R,5S)-5-(4-aminopyrrolo[2,1-f][1,2,4]triazin-7-yl)-2-azido-3,4-dihydroxytetrahydrofuran-2-yl)methoxy)(phenoxy)phosphoryl)amino)propanoate], the CC50 at 5 days in data set [1] was 25 µM. Moreover, in data set [2], the CC50 at 4 days was determined as 18 µM. This compound yielded a concentration for a half-maximal effect (EC50) in the data set on RSV strain A2 (HEp-2, 96 h) of 0.3 µM.
`[N-]=[N+]=N[C@]1(CO)O[C@@H](c2ccc3c(N)ncnn23)[C@H](F)[C@@H]1O` [Example 19, (2R,3R,4R,5S)-5-(4-aminopyrrolo[2,1-f][1,2,4]triazin-7-yl)-2-azido-4-fluoro-2-(hydroxymethyl)tetrahydrofuran-3-ol] yielded a CC50 at 5 days in data set [1] of 16 µM. The same compound gave a CC50 at 4 days in data set [2] of more than 44 µM. Further, the figures for the concentration for a half-maximal effect (EC50) in the data set with RSV strain A2 (setting [3]) and in the data set with RSV strain A2 (setting [4]) were 0.4 µM and less than 100 µM, respectively.
In the case of `C=C[C@]1(CO)O[C@@H](c2ccc3c(N)ncnn23)[C@H](O)[C@@H]1O` [Example 20, (2R,3S,4R,5S)-5-(4-aminopyrrolo[2,1-f][1,2,4]triazin-7-yl)-2-(hydroxymethyl)-2-vinyltetrahydrofuran-3,4-diol], the CC50 at 5 days in data set [1] was more than 53 µM. In data set [2], the CC50 at 4 days is more than 50 µM. Moreover, the EC50 in the data set on RSV strain A2 (setting [3]) was more than 50 µM.
